Reference: patent US8722849B2, “Polypeptides” (Novo Nordisk A/S, priority 2011, dated 2014)
Starred links: 1 amine or outer side, 2 acyl side, 3 side chain; linkers in the order of their positions; H or OH if unused. Positions of bridges follow the written chain, without caps; N, C: chain ends. Residues, ends and D or L forms follow the SMILES beside them. Groups on a side chain read outwards from the residue. *: point of attachment. C20 diacid = O=C(O)CCCCCCCCCCCCCCCCCCC(=O)*; γGlu = O=C(O)[C@H](CCC(=O)[*:2])N[*:1]

Experiments:
food intake = assay: Assay (I) efficacy testing on appetite (food intake), ad libitum fed rat model; assay type: in vivo, Sprague Dawley (SD) rats; conditions: 3 nmol/kg
Source text: In the following examples reference is made to the following Assays: • Assay (I)— Experimental protocol for efficacy testing on appetite using an ad libitum fed rat model • ASSAY (II)a—Functional assay—Human calcitonin and amylin receptor assay • ASSAY (II)b—Functional assay—Rat calcitonin and rat amylin receptor assays • ASSAY (III)—ThT fibrillation assays for the assessment of physical stability of protein formulations • ASSAY (IV)—Determination of solubility • ASSAY (V)—Determination of binding to the human amylin receptor • ASSAY (VI)—Determination of the binding to the rat amylin receptor • ASSAY (VII)—Determination of binding to the human calcitonin receptor • ASSAY (VIII)—Determination of binding to the rat calcitonin receptor • ASSAY (IX)—pK—Determination of T % in mini-pig • ASSAY (X)—pK—Determination of T % in rat ASSAY (I)—Experimental Protocol for Efficacy Testing on Appetite Using an Ad Libitum Fed Rat Model
Sprague Dawley (SD) rats from Taconic Europe, Denmark are used for the experiments. The rats have a body weight 200-250 g at the start of experiment. The rats arrive at least 10-14 days before start of experiment to allow acclimatization to experimental settings. During this period the animals are handled at least 2 times. After arrival rats are housed individually for one week in a reversed light/dark phase (meaning that lights are off during daytime and on during nighttime) […]. Since rats are normally active and eat their major part of their daily food intake during the dark period, rats are dosed in the morning right before lights are turned off. This set-up results in the lowest data variation and highest test sensitivity. The experiment is conducted in the rats' home cages and rats have free access to food and water throughout the acclimatization period and the experiment period. Each dose of derivative is tested in a group of 5-8 rats. A vehicle group of 6-8 rats is included in each set of testing. Rats are dosed once according to body weight with a 0.01-3 mg/kg solution administered intraperitoneally (ip), orally (po) or subcutaneously (sc). The time of dosing is recorded for each group. After dosing, the rats are returned to their home cages, where they then have access to food and water. The food consumption is recorded individually continuously by on-line registration or manually every hour for 7 hours, and then after 24 h and sometimes 48 h. At the end of the experimental session, the animals are euthanised.
The individual data are recorded in Microsoft excel sheets. Outliers are excluded after applying the Grubbs statistical evaluation test for outliers, and the result is presented graphically using the GraphPad Prism program.

[1] = Assay (III) ThT fibrillation assay for physical stability; assay type: physicochemical
Procedure, shortened: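 Freshly prepared formulations, pH-adjusted, with 1 μM ThT; four or eight replicates incubated at 37 °C under 960 rpm orbital shaking. Fluorescence (ex 444/em 485 nm) read every 20 min; […]. Peptide concentration measured by RP-HPLC before and after the run.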

CC[C@H](C)[C@H](NC(=O)[C@@H]1CCCN1C(=O)CNC(=O)[C@H](Cc1ccccc1)NC(=O)[C@H](CC(N)=O)NC(=O)[C@H](CC(N)=O)NC(=O)[C@H](CO)NC(=O)[C@H](CO)NC(=O)[C@H](Cc1c[nH]cn1)NC(=O)[C@H](CCCNC(=N)N)NC(=O)[C@H](CC(C)C)NC(=O)[C@H](Cc1ccccc1)NC(=O)[C@H](CCC(=O)O)NC(=O)[C@H](C)NC(=O)[C@H](CC(C)C)NC(=O)[C@H](CCCNC(=N)N)NC(=O)[C@H](CCC(N)=O)NC(=O)[C@@H](NC(=O)[C@H](C)NC(=O)[C@@H]1CSSC[C@H](NC(=O)[C@H](CCCCN)NC(=O)CC[C@H](NC(=O)CCCCCCCCCCCCCCCCCCC(=O)O)C(=O)O)C(=O)N[C@@H](CC(N)=O)C(=O)N[C@@H]([C@@H](C)O)C(=O)N[C@@H](C)C(=O)N[C@@H]([C@@H](C)O)C(=O)N1)[C@@H](C)O)C(=O)N[C@@H](CC(C)C)C(=O)N1CCC[C@H]1C(=O)N1CCC[C@H]1C(=O)N[C@H](C(=O)N[C@@H](CC(N)=O)C(=O)N[C@H](C(=O)NCC(=O)N[C@@H](CO)C(=O)N[C@@H](Cc1c[nH]cn1)C(=O)N[C@H](C(=O)N[C@@H](Cc1ccc(O)cc1)C(N)=O)[C@@H](C)O)C(C)C)[C@@H](C)O [Example 57, N-alpha-[(S)-4-Carboxy-4-(19-carboxynonadecanoylamino)butyryl]-[Glu14,Arg17,His35]-pramlintide] ({C20 diacid-γGlu}-KCNTATCATQRLAEFLRHSSNNFGPILPPTNVGSHTY-NH2; disulfide 2-7 (inferred); C-terminus assumed)
Food intake reduction 0-24 h 3 nmol/kg (%) (food intake): 17% | Food intake reduction 24-48 h 3 nmol/kg (%) (food intake): 0% | ThT pH 4.0 lag time ([1]; Table 8): >45 h | ThT pH 4.0 lag time ([1]; Table 9): >45 h | ThT pH 4.0 lag time ([1]; ThT fibrillation assay): >45 h | ThT pH 4.0 lag time (h) ([1]; ThT fibrillation assay): >45 h

CC[C@H](C)[C@H](NC(=O)[C@@H]1CCCN1C(=O)CNC(=O)[C@H](Cc1ccccc1)NC(=O)[C@H](CC(N)=O)NC(=O)[C@H](CC(N)=O)NC(=O)[C@H](CO)NC(=O)[C@H](CO)NC(=O)[C@H](Cc1c[nH]cn1)NC(=O)[C@H](Cc1c[nH]cn1)NC(=O)[C@H](CC(C)C)NC(=O)[C@H](Cc1ccccc1)NC(=O)[C@H](CCC(=O)O)NC(=O)[C@H](C)NC(=O)[C@H](CC(C)C)NC(=O)[C@H](CCCNC(=N)N)NC(=O)[C@H](CCC(N)=O)NC(=O)[C@@H](NC(=O)[C@H](C)NC(=O)[C@@H]1CSSC[C@H](NC(=O)[C@H](Cc2c[nH]cn2)NC(=O)CC[C@H](NC(=O)CCCCCCCCCCCCCCCCCCC(=O)O)C(=O)O)C(=O)N[C@@H](CC(N)=O)C(=O)N[C@@H]([C@@H](C)O)C(=O)N[C@@H](C)C(=O)N[C@@H]([C@@H](C)O)C(=O)N1)[C@@H](C)O)C(=O)N[C@@H](CC(C)C)C(=O)N1CCC[C@H]1C(=O)N1CCC[C@H]1C(=O)N[C@H](C(=O)N[C@@H](CC(N)=O)C(=O)N[C@H](C(=O)NCC(=O)N[C@@H](CO)C(=O)N[C@@H](CC(N)=O)C(=O)N[C@H](C(=O)N1CCC[C@H]1C(N)=O)[C@@H](C)O)C(C)C)[C@@H](C)O [Example 84, N-alpha-[(S)-4-Carboxy-4-(19-carboxynonadecanoylamino)butyryl]-[His1,Glu14,His17,Pro37]-pramlintide] ({C20 diacid-γGlu}-HCNTATCATQRLAEFLHHSSNNFGPILPPTNVGSNTP-NH2; disulfide 2-7 (inferred); C-terminus assumed)
Food intake reduction 0-24 h 3 nmol/kg (%) (food intake): 68% | Food intake reduction 24-48 h 3 nmol/kg (%) (food intake): 67% | ThT pH 4.0 lag time ([1]; Table 8): 25.6 h | ThT pH 4.0 lag time ([1]; ThT fibrillation assay): 25.6 h | ThT pH 4.0 lag time (h) ([1]; ThT fibrillation assay): 25.6 h

CC[C@H](C)[C@H](NC(=O)[C@@H]1CCCN1C(=O)CNC(=O)[C@H](Cc1ccccc1)NC(=O)[C@H](CC(N)=O)NC(=O)[C@H](CC(N)=O)NC(=O)[C@H](CO)NC(=O)[C@H](CO)NC(=O)[C@H](Cc1c[nH]cn1)NC(=O)[C@H](Cc1c[nH]cn1)NC(=O)[C@H](CC(C)C)NC(=O)[C@H](Cc1ccccc1)NC(=O)[C@H](CCC(=O)O)NC(=O)[C@H](C)NC(=O)[C@H](CC(C)C)NC(=O)[C@H](CCCNC(=N)N)NC(=O)[C@H](CCC(N)=O)NC(=O)[C@@H](NC(=O)[C@H](C)NC(=O)[C@@H]1CSSC[C@H](NC(=O)[C@@H](N)CCCCNC(=O)CC[C@H](NC(=O)CCCCCCCCCCCCCCCCCCC(=O)O)C(=O)O)C(=O)N[C@@H](CC(N)=O)C(=O)N[C@@H]([C@@H](C)O)C(=O)N[C@@H](C)C(=O)N[C@@H]([C@@H](C)O)C(=O)N1)[C@@H](C)O)C(=O)N[C@@H](CC(C)C)C(=O)N1CCC[C@H]1C(=O)N1CCC[C@H]1C(=O)N[C@H](C(=O)N[C@@H](CC(N)=O)C(=O)N[C@H](C(=O)NCC(=O)N[C@@H](CO)C(=O)N[C@@H](Cc1c[nH]cn1)C(=O)N[C@H](C(=O)N[C@@H](Cc1ccc(O)cc1)C(N)=O)[C@@H](C)O)C(C)C)[C@@H](C)O [Example 87, N-epsilon1-[(S)-4-Carboxy-4-(19-carboxynonadecanoylamino)butyryl]-[Glu14,His17,His35]-pramlintide] (H-K([γGlu-C20 diacid])CNTATCATQRLAEFLHHSSNNFGPILPPTNVGSHTY-NH2; disulfide 2-7 (inferred))
Food intake reduction 0-24 h 3 nmol/kg (%) (food intake): 66% | Food intake reduction 24-48 h 3 nmol/kg (%) (food intake): 47% | ThT pH 4.0 lag time ([1]; Table 8): 25 h | ThT pH 4.0 lag time ([1]; ThT fibrillation assay): 25 h | ThT pH 4.0 lag time (h) ([1]; ThT fibrillation assay): 25 h
